From patent US20040034078A1 (Agouron Pharmaceuticals, Inc., priority 2002, published 2004)

Assays:
purified PARP protein = purified PARP protein (Homo sapiens, UniProt P09874); experiment: PARP Enzyme Inhibition Assay; assay type: biochemical; conditions: [32P]NAD+ incorporation, 500 μM NAD+, 25° C.; competitive inhibition fit; read-out: Inhibition Constant Ki
Experimental: The PARP enzyme-inhibiting activities of test compounds were assayed as described by Simonin et al. (J. Biol. Chem. (1993), 268:8529-8535) and Marsischky et al. (J. Biol. Chem. (1995), 270:3247-3254) with minor modifications as follows. Samples (50 μL) containing 20 nM purified PARP protein, 10 μg/mL DNAse I-activated calf thymus DNA (sigma), 500 μM NAD^+, 0.5 μCi [^32P]NAD^+, 2% DMSO, and various concentrations of test compounds were incubated in sample buffer (50 mM Tris pH 8.0, 10 mM MgCl2, 1 mM tris(carboxyethyl)phosphine HCl) at 25° C. for 5 minutes. Under these conditions, the reaction rate was linear for times up to 10 minutes. The reaction was stopped by the addition of an equal volume of ice-cold 40% trichloroacetic acid to the samples, which were then incubated on ice for 15 minutes. The samples were then transferred to a Bio-Dot microfiltration apparatus (BioRad), filtered through Whatman GF/C glass-fiber filter paper, washed 3 times with 150 μL of wash buffer (5% trichloroacetic acid, 1% inorganic pyrophosphate), and dried. [^32P]ADP-Ribose incorporation into the acid-insoluble material was quantitated using a PhosphorImager (Molecular Dynamics) and ImageQuant software. Inhibition constants (Ki) were calculated by non-linear regression analyses using the velocity equation for competitive inhibition (Segel, Enzyme Kinetics: Behavior and Analysis of Rapid Equilibrium and Steady-State Enzyme Systems, John Wiley & Sons, Inc., New York (1975), 100-125). In the case of tight-binding inhibitors, 5 nM enzyme was used and the reaction was incubated at 25° C. for 25 minutes. Ki values for tight-binding inhibitors were calculated using the equation described by Sculley et al. (Biochim. Biophys. Acta (11986), 874:44-53).

A549 cells = experiment: Cytotoxicity Potentiation Assay; assay type: cell-based; conditions: ratio of IC50 of topotecan alone to IC50 of topotecan in combination with test compound
Experimental: A549 cells (ATCC, Rockville, Md.) were seeded into 96-well cell culture plates (Falcon brand, Fisher Scientific, Pittsburgh, Pa.) 16 to 24 hours before experimental manipulation. Cells were then treated with a test compound (or a combination of test compounds where indicated) for either 3 days or 5 days. At the end of treatments, relative cell number was determined either by MTT assay or SRB assay. For the MTT assay, 0.2 μg/μl of MTT (3-(4,5-dimethylthiazol-2-yl)-2,5-diphenyltetrazolium bromide, Sigma Chemical Co., St. Louis, Mo.) was added to each well of a plate, and the plate was incubated in a cell-culture incubator for 4 hours. Metabolized MTT in each well was solubilized in 150 μl of DMSO (Sigma Chemical Co.) with shaking and quantified with a Wallac 1420 Victor plate reader (EG & G Wallac, Gaithersburg, Md.) at 540 nm. For the SRB assay, cells were fixed with 10% trichloroacetic acid (Sigma Chemical Co) for an hour at 4° C. After extensively washing, fixed cells were stained for 30 minutes with 0.4% sulforhodamine B (SRB, Sigma Chemical Co.) in 1% acetic acid (Sigma Chemical Co). Unbound SRB was washed away with 1% acetic acid. Then the cultures were air-dried, and bound dye was solubilized with 10 mM unbuffered Tris base (Sigma Chemical Co) with shaking. The bound dye was measured photometrically with the Wallac Victor plate reader at 515 nm. The ratio of the OD (optical density) value of a compound-treated culture to the OD value of a mock-treated culture, expressed in percentage, was used to quantify the cytotoxicity of a compound. The concentration at which a compound causes 50% cytotoxicity is referred to as IC50. To quantify the potentiation of the cytotoxicity of topotecan or temozolomide by test compounds, a dimensionless parameter PF50 is used and is defined as the ratio of the IC50 Of topotecan or temozolomide alone to the IC50 of topotecan or temozolomide in combination with a test compound. For the compounds of the invention, PF50 values were determined by testing with topotecan.

Chain of purified PARP protein (P09874 whole entry): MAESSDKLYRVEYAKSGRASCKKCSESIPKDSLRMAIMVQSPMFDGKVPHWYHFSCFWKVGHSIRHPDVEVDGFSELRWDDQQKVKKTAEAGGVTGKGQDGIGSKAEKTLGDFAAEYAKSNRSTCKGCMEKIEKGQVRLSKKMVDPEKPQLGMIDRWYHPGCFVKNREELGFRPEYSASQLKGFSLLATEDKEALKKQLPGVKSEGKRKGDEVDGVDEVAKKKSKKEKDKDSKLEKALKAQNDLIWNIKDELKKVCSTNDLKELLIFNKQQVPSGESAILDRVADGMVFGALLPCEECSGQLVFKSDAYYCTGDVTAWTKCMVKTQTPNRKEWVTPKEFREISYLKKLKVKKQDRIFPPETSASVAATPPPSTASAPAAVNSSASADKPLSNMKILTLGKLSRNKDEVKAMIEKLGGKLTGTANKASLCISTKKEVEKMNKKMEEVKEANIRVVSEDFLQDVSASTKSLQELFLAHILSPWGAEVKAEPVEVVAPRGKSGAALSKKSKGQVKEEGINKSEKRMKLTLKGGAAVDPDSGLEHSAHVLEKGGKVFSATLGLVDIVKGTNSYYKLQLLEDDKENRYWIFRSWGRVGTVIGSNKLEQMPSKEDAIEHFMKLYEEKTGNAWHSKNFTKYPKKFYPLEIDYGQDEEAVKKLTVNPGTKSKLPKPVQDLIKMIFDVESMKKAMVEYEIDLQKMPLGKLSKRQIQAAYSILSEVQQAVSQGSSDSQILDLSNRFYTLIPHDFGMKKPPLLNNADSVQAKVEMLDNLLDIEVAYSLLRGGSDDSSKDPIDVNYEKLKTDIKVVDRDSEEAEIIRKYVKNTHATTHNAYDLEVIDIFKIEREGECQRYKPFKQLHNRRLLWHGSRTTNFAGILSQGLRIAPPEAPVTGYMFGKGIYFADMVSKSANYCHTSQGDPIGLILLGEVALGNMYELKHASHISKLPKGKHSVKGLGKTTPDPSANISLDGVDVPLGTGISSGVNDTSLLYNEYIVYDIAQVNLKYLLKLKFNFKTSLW

Ki (purified PARP protein) [µM] | SMILES | Cytotoxicity Potentiation PF50 (A549 cells)
0.011 ± 0.003 | CC(=O)Nc1ccc(CSc2nc3c(C(N)=O)cccc3[nH]2)cc1 [Compound 42, 2-(4-Acetylamino-benzylsulfanyl)-1H-benzimidazole-4-carboxylic Acid Amide] | 1.1
0.0074 | NC(=O)c1cccc2[nH]c(CS(=O)(=O)c3ccc(NC(=O)CO)cc3)nc12 [Compound 49] | 1.0
0.0103 ± 0.0003 | COc1ccc(S(=O)(=O)Cc2nc3c(C(N)=O)cccc3[nH]2)cc1 [Compound 33, 2-(4-Methoxy-benzenesulfonylmethyl)-1H-benzimidazole-4-carboxylic Acid Amide] | 1.3
0.016 ± 0.001 | NC(=O)c1cccc2[nH]c(CS(=O)(=O)c3ccc(NC(=O)OCc4ccccc4)cc3)nc12 [Compound 38, [4(4-Carbamoyl-1H-benzoimidazol-2-ylmethanesulfonyl)-phenyl]-carbamic Acid Benzyl Ester] | 1.1
0.024 | NC(=O)c1cccc2[nH]c(CS(=O)(=O)c3ccc(O)cc3)nc12 [Compound 29, 2-(4-Hydroxy-benzenesulfonylmethyl)-1H-benzimidazole-4-carboxylic Acid Amide] | 1.2
0.0039 ± 0.0006 | NC(=O)c1cccc2[nH]c(C[S+]([O-])c3ccc([N+](=O)[O-])cc3)nc12 (centres unmarked) [Compound 28, 2-(4-Nitro-benzenesulfinylmethyl)-1H-benzimidazole-4-carboxylic Acid Amide] | 1.4
0.026 | CCCCNCCS(=O)(=O)Cc1nc2c(C(N)=O)cccc2[nH]1 [Compound 30, 2-(2-Butylamino-ethanesulfonylmethyl)-1H-benzimidazole-4-carboxylic Acid Amide] | 1.1
0.0086 ± 0.0001 | CN(CCc1ccccc1)Cc1nc2c(C(N)=O)cccc2[nH]1 [Compound 18, 2-[(Methyl-phenethyl-amino)-methyl]-1H-benzimidazole-4-carboxylic Acid Amide] | 1.4
0.01 ± 0.003 | CC(=O)Nc1ccc(S(=O)(=O)Cc2nc3c(C(N)=O)cccc3n2C)cc1 [Compound 48, 2-(4-Acetylamino-benzenesulfonylmethyl)-1-methyl-1H-benzoimidazole-4-carboxylic Acid Amide] | 1.2
0.0069 ± 0.0004 | NC(=O)c1cccc2[nH]c(CSc3ccccc3C3=NCCCN3)nc12 [Compound 7] | 2.2
0.022 ± 0.002 | NC(=O)c1cccc2[nH]c(CN3CCc4ccccc4C3)nc12 [Compound 19, 2-(3,4-Dihydro-1H-isoqluinolin-2-ylmethyl)-1H-benzimidazole-4-carboxylic Acid Amide] | 1.1
0.01 ± 0.003 | CC(=O)Nc1ccc(SCc2nc3c(C(N)=O)cccc3[nH]2)cc1 [Compound 9, 2-(4-Acetylamino-phenylsulfanylmethyl)-1H-benzimidazole-4-carboxylic Acid Amide] | 1.1
0.0038 ± 0.0005 | CC(=O)Nc1ccc(S(=O)(=O)Cc2nc3c(C(N)=O)cccc3[nH]2)cc1 [Compound 32, 2-(4-Acetylamino-benzenesulfonylmethyl)-1H-benzimidazole-4-carboxylic Acid Amide] | 1.1
0.029 ± 0.007 | CCCCNCCSCc1nc2c(C(N)=O)cccc2[nH]1 [Compound 1, 2-(2-Butylamino-ethylsulfanylmethyl)-1H-benzimidazole-4-carboxylic Acid Amide] | 1.2
0.0065 ± 0.0015 | COc1ccc(CSc2nc3c(C(N)=O)cccc3[nH]2)cc1 [Compound 43, 2-(4-Methoxy-benzylsulfanyl)-1H-benzimidazole-4-carboxylic Acid Amide] | 
0.012 ± 0.001 | NC(=O)c1cccc2[nH]c(CS(=O)(=O)c3ccc(C(F)(F)F)cc3)nc12 [Compound 34, 2-(4-Trifluoromethyl-benzenesulfonylmethyl)-1H-benzimidazole-4-carboxylic Acid Amide] | 1.2
0.093 ± 0.01 | NC(=O)c1cccc2c1nc1n2CCSC1 [Compound 47, 3,4-Dihydro-1H-2-thia-4a,9-diaza-fluorene-8-carboxylic Acid Amide] | 
0.017 | NC(=O)c1cccc2[nH]c(CN3CCC(N)C3)nc12 (centres unmarked) [Compound 22, 2-(3-Amino-pyrrolidin-1-ylmethyl)-1H-benzimidazole-4-carboxylic Acid Amide] | 
0.024 ± 0.003 | NC(=O)c1cccc2[nH]c(CS(=O)(=O)c3ccc(N4C(=O)CNC4=O)cc3)nc12 [Compound 51, 2-[4-(2,5-Dioxo-imidazolidin-1-yl)-benzenesulfonylmethyl]-1H-benzoimidazole-4-carboxylic Acid Amide] | 
0.012 | NC(=O)c1cccc2[nH]c(CSc3nc4ccccc4s3)nc12 [Compound 2, 2-(Benzothiazol-2-ylsulfanylmethyl)-1H-benzimidazole-4 carboxylic Acid Amide] | 
0.019 ± 0.002 | CC(=O)c1ccc(N2CCN(Cc3nc4c(C(N)=O)cccc4[nH]3)CC2)cc1 [Compound 17, 2-[4-(4-Acetyl-phenyl)-piperazin-1-vimethyl]-1H-benzimidazole-4-carboxylic Acid Amide] | 1.2
0.0025 ± 0.0002 | NC(=O)c1cccc2[nH]c(CS(=O)(=O)c3ccc([N+](=O)[O-])cc3)nc12 [Compound 27, 2-(4-Nitro-benzenesulfonylmethyl)-1H-benzimidazole-4-carboxylic Acid Amide] | 1.3
0.038 ± 0.001 | COC(=O)Nc1ccc(SCc2nc3c(C(N)=O)cccc3[nH]2)cc1 [Compound 26] | 
0.048 ± 0.001 | NC(=O)c1cccc2[nH]c(CSCCN3CCOCC3)nc12 [Compound 45, 2-(2-Morpholin-4-yl-ethylsulfanylmethyl)-1H-benzimidazole-4-carboxylic Acid Amide] | 
